Measured values from PubChem BioAssay (NCI).
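Exposure lasted 48 hours, with cells grown in 96-well plates and compounds tested at five concentrations. The concentration for full growth arrest is given as TGI.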

Assays:
Assay in all cases: NCI-60 cell line screen, 48 h
[1] = tested on: SNB-78 CNS
[2] = tested on: HCT-15 colon
[3] = tested on: 786-0 renal
[4] = tested on: KM20L2 colon
[5] = tested on: OVCAR-8 ovarian
[6] = tested on: HCT-116 colon
[7] = tested on: OVCAR-3 ovarian
[8] = tested on: LXFL 529 NSCLC
[9] = tested on: COLO 205 colon
[10] = tested on: U251 CNS
[11] = tested on: LOX IMVI melanoma
[12] = tested on: SK-MEL-5 melanoma
[13] = tested on: DMS 114 small cell lung
[14] = tested on: NCI-H23 lung
[15] = tested on: SF-295 CNS
[16] = tested on: SK-MEL-28 melanoma
[17] = tested on: SF-268 CNS
[18] = tested on: UO-31 renal
[19] = tested on: ACHN renal
[20] = tested on: XF 498 CNS
[21] = tested on: NCI-H460 lung
[22] = tested on: SNB-75 CNS
[23] = tested on: RXF-631 renal
[24] = tested on: TK-10 renal
[25] = tested on: SW-620 colon
[26] = tested on: SK-OV-3 ovarian
[27] = tested on: SNB-19 CNS
[28] = tested on: UACC-62 melanoma
[29] = tested on: A549 NSCLC
[30] = tested on: CAKI-1 renal
[31] = tested on: OVCAR-4 ovarian
[32] = tested on: M19-MEL melanoma
[33] = tested on: HCC-2998 colon
[34] = tested on: EKVX NSCLC
[35] = tested on: HT29 colon
[36] = tested on: HL-60(TB) leukemia
[37] = tested on: K-562 leukemia
[38] = tested on: M14 melanoma
[39] = tested on: HOP-62 NSCLC
[40] = tested on: SF-539 CNS
[41] = tested on: DMS 273 small cell lung
[42] = tested on: CCRF-CEM leukemia
[43] = tested on: SN12C renal
[44] = tested on: IGROV1 ovarian
[45] = tested on: DLD-1 colon
[46] = tested on: MOLT-4 leukemia
[47] = tested on: DU-145 prostate
[48] = tested on: SR leukemia
[49] = tested on: OVCAR-5 ovarian
[50] = tested on: UACC-257 melanoma
[51] = tested on: MDA-MB-435
[52] = tested on: MDA-MB-231 breast
[53] = tested on: MCF7 breast
[54] = tested on: RPMI-8226 leukemia
[55] = tested on: RXF 393 renal
[56] = tested on: NCI-H226 lung
[57] = tested on: NCI-H522 lung
[58] = tested on: KM12 colon
[59] = tested on: A498 renal
[60] = tested on: NCI/ADR-RES ovarian
[61] = tested on: SK-MEL-2 melanoma
[62] = tested on: T-47D breast
[63] = tested on: BT-549 breast
[64] = tested on: HS 578T breast
[65] = tested on: PC-3 prostate
[66] = tested on: HOP-92 NSCLC
[67] = tested on: MALME-3M melanoma

In the case of CCCCN1C(=O)C2c3[nH]c4ccccc4c3C3CCCCC3C2C1=O (mixture of isomers), the TGI [1] is reported as 50 µM, the TGI [2] is reported as over 100 µM and the TGI [3] is reported as 20.2 µM. For the same compound, the TGI [4] was over 100 µM, the TGI [5] was 58.8 µM and the TGI [6] was 23.6 µM. The TGI [7] was 28.9 µM, the TGI [8] was 29.1 µM and the TGI [9] was over 100 µM. The TGI [10] was 36.3 µM, the TGI [11] was 24.1 µM and the TGI [12] was 90.3 µM. It also gave a TGI [13] of 44.6 µM, a TGI [14] of 78.1 µM and a TGI [15] of 23.7 µM. It also gave a TGI [16] of over 100 µM, a TGI [17] of 48.4 µM and a TGI [18] of 47.5 µM. It also gave a TGI [19] of 27.7 µM, a TGI [20] of 27.8 µM and a TGI [21] of 31.2 µM. It also gave a TGI [22] of 21.9 µM, a TGI [23] of 36.4 µM and a TGI [24] of 33.9 µM. The TGI [25] was over 100 µM, the TGI [26] was 47.7 µM and the TGI [27] was 64.2 µM. The TGI [28] was 79.3 µM, the TGI [29] was 45 µM and the TGI [30] was 20.4 µM. The TGI [31] was 8.22 µM, the TGI [32] was over 100 µM and the TGI [33] was 62.4 µM. It also gave a TGI [34] of 66.8 µM, a TGI [35] of over 100 µM and a TGI [36] of 29.1 µM. It also gave a TGI [37] of 28.3 µM, a TGI [38] of 42.8 µM and a TGI [39] of 19.4 µM. The TGI [40] was 28.6 µM, the TGI [41] was 23.5 µM and the TGI [42] was 37.5 µM. For the same compound, the TGI [43] was over 100 µM, the TGI [44] was 75.9 µM and the TGI [45] was over 100 µM. The TGI [46] was 19.4 µM.

In the case of C/C(=N\N)C(CN1CCCCC1)C(c1ccccc1)c1c(O)c2ccccc2oc1=O (stereo not drawn), the TGI [1] is reported as over 100 µM, the TGI [47] is reported as over 100 µM and the TGI [48] is reported as over 100 µM. The TGI [2] was over 100 µM, the TGI [3] was over 100 µM and the TGI [4] was over 100 µM. The TGI [5] was over 100 µM, the TGI [6] was over 100 µM and the TGI [7] was over 100 µM. The TGI [8] was over 100 µM, the TGI [9] was over 100 µM and the TGI [49] was over 100 µM. It also gave a TGI [10] of over 100 µM, a TGI [11] of over 31.6 µM and a TGI [12] of over 100 µM. For the same compound, the TGI [13] was over 100 µM, the TGI [14] was over 100 µM and the TGI [15] was over 100 µM. It also gave a TGI [16] of over 100 µM, a TGI [17] of over 100 µM and a TGI [18] of over 100 µM. For the same compound, the TGI [19] was over 100 µM, the TGI [20] was over 100 µM and the TGI [21] was over 100 µM. The TGI [50] was over 100 µM, the TGI [51] was over 100 µM and the TGI [22] was over 100 µM. The TGI [23] was over 100 µM, the TGI [52] was over 100 µM and the TGI [24] was over 100 µM. For the same compound, the TGI [53] was over 100 µM, the TGI [25] was over 100 µM and the TGI [26] was over 100 µM. It also gave a TGI [27] of over 100 µM, a TGI [28] of over 100 µM and a TGI [29] of over 100 µM. For the same compound, the TGI [30] was over 100 µM, the TGI [54] was over 100 µM and the TGI [55] was over 100 µM. The TGI [31] was over 100 µM, the TGI [56] was over 100 µM and the TGI [57] was over 100 µM. The TGI [32] was over 100 µM, the TGI [33] was over 100 µM and the TGI [58] was over 100 µM. For the same compound, the TGI [34] was over 100 µM, the TGI [35] was over 100 µM and the TGI [59] was over 100 µM. The TGI [60] was over 100 µM, the TGI [61] was over 100 µM and the TGI [36] was over 100 µM. For the same compound, the TGI [37] was over 100 µM, the TGI [62] was over 100 µM and the TGI [63] was over 100 µM. The TGI [38] was over 100 µM, the TGI [39] was over 100 µM and the TGI [40] was over 100 µM. It also gave a TGI [41] of over 100 µM, a TGI [64] of over 100 µM and a TGI [65] of over 100 µM. For the same compound, the TGI [42] was over 100 µM, the TGI [43] was over 100 µM and the TGI [44] was over 100 µM. It also gave a TGI [45] of over 100 µM, a TGI [66] of over 100 µM and a TGI [67] of over 100 µM. It also gave a TGI [46] of over 100 µM.
